Several values for one entry are separate records, joined by “and”; a condition that tells them apart may be missing. Equal values may be shown once. After the bases stand the sugars from the 5' end (letter, count) and the backbone: PS all phosphorothioate, else s phosphorothioate and o phosphodiester by linkage. Methylation of C is not given here. e = 2'-O-(2-methoxyethyl) (MOE); k = constrained ethyl (cEt); d = 2'-deoxy (DNA)
Biological target: SOD1
Settings: ASO

With “ATCAGTTTCTCACTACAGGT (sugars e5 d10 e5, PS)” the target mRNA inhibition (HepG2, 5 µM) was 22%.

In the case of “ATCCATGCAGGCCTTCA (sugars e3 k2 d7 k2 e3, PS)”, the target mRNA inhibition (HepG2, 3 µM) is reported as 27%.

“ATCTGTGATTTAAGTCT (sugars e2 k2 d9 k2 e2, PS)” showed a target mRNA inhibition (HepG2, 5 µM) of 37%.

Sequence “ATGCAGGCCTTCAGTCA (sugars e3 k2 d7 k2 e3, PS)” has a target mRNA inhibition (HepG2, 3 µM) of 37%.

With “ATGGAATCCATGCAGGC (sugars e3 k2 d7 k2 e3, PS)” the target mRNA inhibition (HepG2, 3 µM) was 9%.

With “ATGTTTATCAGGATAC (sugars ekddddddddekekee, linkages s1 o1 s8 o3 s2)” the target mRNA inhibition (A431, 0.12 µM) was 0%, the target mRNA inhibition (A431, 0.6 µM) was 7% and the target mRNA inhibition (A431, 3 µM) was 26%. It also gave a target mRNA inhibition (A431, 15 µM) of 59%, a target mRNA inhibition (HepG2, 0.222 µM) of 64% and a target mRNA inhibition (HepG2, 0.667 µM) of 81%. For the same sequence, the target mRNA inhibition (HepG2, 2 µM) was 90% and the target mRNA inhibition (HepG2, 6 µM) was 94%.

Work on “ATGTTTATCAGGATACA (sugars e2 k2 d9 k2 e2, PS)” yielded a target mRNA inhibition (HepG2, 0.1875 µM) of 27%, a target mRNA inhibition (HepG2, 0.75 µM) of 65% and a target mRNA inhibition (HepG2, 3 µM) of 88%. It also gave a target mRNA inhibition (HepG2, 4 µM) of 81% and a target mRNA inhibition (HepG2, 12 µM) of 96%.

For “ATGTTTATCAGGATACA (sugars e4 d8 e5, linkages s1 o2 s9 o2 s2)”, the target mRNA inhibition (A431, 0.062 µM) was 0%, the target mRNA inhibition (A431, 0.185 µM) was 4% and the target mRNA inhibition (A431, 0.556 µM) was 10%. The target mRNA inhibition (A431, 1.667 µM) was 33%, the target mRNA inhibition (A431, 5 µM) was 56% and the target mRNA inhibition (A431, 15 µM) was 50%. The target mRNA inhibition (SH-SY5Y, 0.062 µM) was 0%, the target mRNA inhibition (SH-SY5Y, 0.185 µM) was 4% and the target mRNA inhibition (SH-SY5Y, 0.556 µM) was 32%. The target mRNA inhibition (SH-SY5Y, 1.667 µM) was 37%, the target mRNA inhibition (SH-SY5Y, 5 µM) was 61% and the target mRNA inhibition (SH-SY5Y, 15 µM) was 83%.

For “ATGTTTATTGGGCGATC (sugars e2 k2 d8 k2 e3, PS)”, the target mRNA inhibition (HepG2, 0.1875 µM) was 15%, the target mRNA inhibition (HepG2, 0.75 µM) was 36% and the target mRNA inhibition (HepG2, 3 µM) was 79%. It also gave a target mRNA inhibition (HepG2, 4 µM) of 76% and a target mRNA inhibition (HepG2, 12 µM) of 95%.

“ATTACTTTCCTTCTGCT (sugars e3 k2 d7 k2 e3, PS)” showed a target mRNA inhibition (HepG2, 3 µM) of 15%.

Sequence “ATTTAAGTCTGGCAAAATAC (sugars e5 d10 e5, PS)” has a target mRNA inhibition (HepG2, 5 µM) of 16%.

Sequence “CAAAATACAGGTCATTG (sugars e2 k2 d8 k2 e3, PS)” has a target mRNA inhibition (HepG2, 5 µM) of 44%.

“CAAAATACAGGTCATTG (sugars e2 k2 d9 k2 e2, PS)” gave a target mRNA inhibition (HepG2, 5 µM) of 56%.

“CAAAGAAATTCTGACAAGTT (sugars e5 d10 e5, PS)” gave a target mRNA inhibition (HepG2, 5 µM) of 7%.

“CAAGCCAAACGACTTCCAGC (sugars e5 d10 e5, PS)” showed a target mRNA inhibition (HepG2, 0.1875 µM) of 9%, a target mRNA inhibition (HepG2, 0.75 µM) of 27% and a target mRNA inhibition (HepG2, 3 µM) of 59%. The target mRNA inhibition (HepG2, 5 µM) was 54% and the target mRNA inhibition (HepG2, 12 µM) was 89%.

Work on “CAAGTTTAATACCCATC (sugars e3 k2 d7 k2 e3, PS)” yielded a target mRNA inhibition (HepG2, 3 µM) of 37%.

In the case of “CAATTACACCACAAGCC (sugars e2 k2 d9 k2 e2, PS)”, the target mRNA inhibition (HepG2, 4 µM) is reported as 61%.

Sequence “CACCACAAGCCAAACGA (sugars e2 k2 d8 k2 e3, PS)” has a target mRNA inhibition (HepG2, 4 µM) of 48%.

For “CACCTTCACTGGTCCAT (sugars e3 k2 d7 k2 e3, PS)”, the target mRNA inhibition (HepG2, 0.1875 µM) was 19%, the target mRNA inhibition (HepG2, 0.75 µM) was 39% and the target mRNA inhibition (HepG2, 3 µM) was 53% and 69%. The target mRNA inhibition (HepG2, 12 µM) was 88%.

“CACGCCGAGGTCCTGGTTCC (sugars e5 d10 e5, PS)” was tested, and the target mRNA inhibition (HepG2, 4 µM) was 23%.

“CAGAATCTTCAATAGACACA (sugars e5 d10 e5, PS)” was tested, and the target mRNA inhibition (HepG2, 5 µM) was 17% and 0%.

Work on “CAGGATAACAGATGAGT (sugars e2 k2 d8 k2 e3, PS)” yielded a target mRNA inhibition (HepG2, 0.1875 µM) of 62%, a target mRNA inhibition (HepG2, 0.75 µM) of 89% and a target mRNA inhibition (HepG2, 3 µM) of 95%. For the same sequence, the target mRNA inhibition (HepG2, 4 µM) was 95% and the target mRNA inhibition (HepG2, 12 µM) was 95%.

In the case of “CAGGATAACAGATGAGT (sugars e3 k2 d7 k2 e3, PS)”, the target mRNA inhibition (HepG2, 0.1875 µM) is reported as 45%, the target mRNA inhibition (HepG2, 0.75 µM) is reported as 72% and the target mRNA inhibition (HepG2, 3 µM) is reported as 65% and 86%. It also gave a target mRNA inhibition (HepG2, 12 µM) of 92%.

For “CAGGCCTTCAGTCAGTCCTT (sugars e5 d10 e5, PS)”, the target mRNA inhibition (HepG2, 5 µM) was 56% and 51%.

Work on “CAGGTCATTGAAACAGA (sugars e3 k2 d7 k2 e3, PS)” yielded a target mRNA inhibition (HepG2, 3 µM) of 14%.

“CAGTGTTTAATGTTTA (sugars ekddddddddekekee, linkages s1 o1 s8 o3 s2)” showed a target mRNA inhibition (A431, 0.12 µM) of 8%, a target mRNA inhibition (A431, 0.6 µM) of 26% and a target mRNA inhibition (A431, 3 µM) of 57%. It also gave a target mRNA inhibition (A431, 15 µM) of 76%, a target mRNA inhibition (HepG2, 0.222 µM) of 54% and a target mRNA inhibition (HepG2, 0.667 µM) of 79%. For the same sequence, the target mRNA inhibition (HepG2, 2 µM) was 84% and the target mRNA inhibition (HepG2, 6 µM) was 88%.

“CAGTGTTTAATGTTTAT (sugars e3 k2 d7 k2 e3, PS)” gave a target mRNA inhibition (HepG2, 3 µM) of 54%.
